Measured values: patent US5914341A, “Inhibitors of farnesyl-protein transferase” (Merck & Co., Inc., priority 1998, dated 1999)
Counter-ions that a name gives are not always drawn.

Target: T1, human FPTase (Homo sapiens, UniProt P49354+P49356)
T1 construct: made in house
Assay: In vitro inhibition of ras farnesyl transferase (human FPTase assay)
Assay type: biochemical
Settings: [3H]-FPP incorporation, 100 nM Ras-CVIM substrate, 30 min; read-out: IC50, inhibitory activity against human FPTase

Row | SMILES | IC50
1 | N#Cc1ccc(Cn2cncc2COC(=O)Nc2cccc(Cl)c2)cc1 [Example 1, N-(3-chlorophenyl)-O-[1-(4-cyanobenzyl)-5-imidazolylmethyl]-carbamate hydrochloride] | < 30 µM
2 | CCCCCN(C(=O)OCc1cncn1Cc1ccc(C#N)cc1)c1cccc(Cl)c1 [Example 2, N-(3-chlorophenyl)-N-(n-pentyl)-O-[1-(4-cyanobenzyl)-5-imidazolylmethyl]carbamate hydrochloride] | < 30 µM
